Assay results taken from patent US20240336596A1, “PARP7 INHIBITOR AND USE THEREOF” (NOVOSTAR PHARMACEUTICALS, LTD., priority 2022, published 2024).
pIC50: −log10 of the molar value. Values belong to the compound of their own block, whether it stands above or below them.

What was measured:
NCI-H1373 cancer cells = assay: NCI-H1373 cancer cell growth inhibition (CellTiter-Glo, 144 hours); type: cell-based; conditions: Homo sapiens, 144 hours culture
Method: Promega CellTiter-Glo cell activity assay kit (Item No.: Promege-G7573) was used to determine the cell activity. 90 μL NCI-H1373 cell suspension (ATCC, catalog No. CRL-5866, batch No. 58078716) was spread into the pores of the 96-well plate with 3500 cells per well. After 24 hours, the 10 μL prepared 10× compound working solution was added into the pores of the cell culture plate with a final concentration of 10 μM. 3.3333 μM, 1.1111 μM, 0.3704 μM, 0.1235 μM, 0.0412 μM, 0.0137 μM, 0.0046 μM, 0.0015 μM, 0.0005 μM, 10 μL DMSO was added to the solvent control, and the final concentration of DMSO was 0.2%. The 0-day plates were collected for analysis, and after 144 hours of culture, the growth condition of cells was detected according to the instructions of CellTiter-Glo cell activity assay kit. Add 50 μL of CellTiter-Glo working liquid into each hole of the cell culture plate, shake the plates in the dark for 2 minutes until cell lysis, and place at room temperature for 10 minutes to detect the luminous signal (RUL) of each cell hole on the 2104En Vision board reader.
Calculation formula: Growth inhibition rate %=(1−(RLU compound−RLU Day0)/(RLU solvent control−RLU Day0))*100%. The dose-response curves of each compound were fitted by GraphPad Prism 8 to obtain IC50 values.
For the matter, IC50 values less than 0.1 μM are labeled “+++”, values from 0.1 to 1 μM are labeled “++”, and values greater than 1 to 10 μM are labeled “+”.

[1] = molecular target: T1, recombinant human PARP7 protein (Homo sapiens, UniProt Q7Z3E1); assay: Inhibition of PARP7 biological enzyme activity (histone-coated plate, Biotin-NAD+, chemiluminescence); type: biochemical; conditions: recombinant human PARP7, Biotin-NAD+ substrate
T1 construct: purchased Abcam ab271651
T1 sequence (Q7Z3E1 1-657): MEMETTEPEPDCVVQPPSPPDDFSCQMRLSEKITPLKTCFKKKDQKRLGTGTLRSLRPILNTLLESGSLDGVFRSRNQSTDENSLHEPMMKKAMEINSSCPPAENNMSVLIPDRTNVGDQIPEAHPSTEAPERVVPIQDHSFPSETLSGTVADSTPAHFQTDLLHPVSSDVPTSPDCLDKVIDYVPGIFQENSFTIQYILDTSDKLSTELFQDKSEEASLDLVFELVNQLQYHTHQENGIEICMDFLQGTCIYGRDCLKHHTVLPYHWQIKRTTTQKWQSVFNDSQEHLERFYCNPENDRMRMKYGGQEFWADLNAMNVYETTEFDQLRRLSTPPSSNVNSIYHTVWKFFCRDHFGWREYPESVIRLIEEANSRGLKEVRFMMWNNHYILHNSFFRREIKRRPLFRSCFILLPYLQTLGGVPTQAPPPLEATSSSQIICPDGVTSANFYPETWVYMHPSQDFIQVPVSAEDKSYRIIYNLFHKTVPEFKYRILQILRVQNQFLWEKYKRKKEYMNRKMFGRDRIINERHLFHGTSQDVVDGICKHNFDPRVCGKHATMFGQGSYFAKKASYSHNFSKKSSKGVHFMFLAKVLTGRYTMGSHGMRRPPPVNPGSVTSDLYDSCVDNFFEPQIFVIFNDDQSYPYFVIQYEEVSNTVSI
Method: The recombinant human PARP7 protein kit (Abcam, catalog number ab271651) was used for the assay. According to the kit instructions, 30 μL of histone coating solution (1.5 μg/mL) was first applied to the 384 well holes of the reaction plate and coated at 4° C. for 2 hours. Then, the histone coated solution was washed off, and 50 μL sealing buffer was added to each well, and the sealing buffer was washed off after incubation at 25° C. for 60 minutes. 1000 times the concentration of the compound was 10 configured and diluted from 1 mM to 0.05 μM, and the configured compound was transferred to 384-well plates with 25 nL per well using Echo. The final concentration of the compound in the reaction system was 1000 nM, 333.33 nM, 111.11 nM, 37.03 nM, 12.34 nM, 4.11 nM, 1.37 nM, 0.45 nM, 0.15 nM, 0.05 nM, which was used as the test hole. At the same time, 25 nL DMSO was added to the negative control well and the positive control well. The PARP7 enzyme solution with a concentration of 1.67 times was prepared, and the PARP7 enzyme solution was added to the test hole and the positive control hole with 15 μL each, while the negative control hole was added with 15 μL base Buffer, and incubated at 25° C. for 15 minutes. Then 10 μL 2.5 times Biotin-NAD+ substrate solution was added and incubated at 25° C. for 60 min. After the reaction solution was washed off, the 384-well reaction plates were treated with closed buffer solution diluted with streptavidin-HRP (1:500), each well was 30 μL, and incubated at 25° C. for 30 min. After the HRP buffer was washed off, 30 μL HRP chemiluminescent substrate mixture was added to each well, and the luminescence signal (RLU) of each well was detected by Envision. Calculation formula: Inhibition rate %=(average positive control-RLU compound)/(average positive control-average negative control))*100%. The dose-response curves of each compound were fitted by GraphPad Prism 8 to get IC50 values. IC50 values less than 0.01 μM are labeled as “+++”, IC50 values from 0.01 to 0.1 µM are labeled as “++”, and IC50 values greater than 0.1 to 10.0 μM are labeled as “+”.

[2] = Pharmacokinetic study in mice (IV and oral gavage); type: in vivo, CD-1 mice; conditions: mouse, plasma, male CD-1 mice
Method: Formulation of intravenous and oral gavage administration solutions: The compounds to be tested were dissolved in solutions formulated with 5% DMSO, 10% solutol HS15, and 85% saline.
Dosage (measured as the amount of compound in the administration solution (mg)/mouse body weight (kg)): 3 mg/kg intravenously (IV), 10 mg/kg oral gavage (PO).
A total of 18 CD-1 mice (Shanghai Jihui Experimental Animal Feeding Co., LTD.), male, weight 28-31 g, were fasted for 12 hours and randomly divided into 2 groups (Group A and Group B) with 9 mice in each group. Animals in Group A were given the compound solution by oral gavage at the dose of 10 mg/kg. Animals in Group B were given the compound solution by tail vein injection at the dose of 3 mg/kg, and blank blood was taken before administration. About 110 μL of venous blood was taken from animals in Group A at 0.25 h, 0.5 h, 1 h, 2 h, 4 h, 8 h, and 24 h after administration. About 110 μL of venous blood was taken from animals in Group B at 0.083 h, 0.25 h, 0.5 h, 1 h, 2 h, 4 h, 8 h, and 24 h after administration, and all were placed in test tubes with heparin, centrifuged, and plasma was collected and stored at −70° C. for testing.
AUClast represents the area under the drug time curve from the beginning of the administration time to the last point, that is, the area surrounded by the blood drug concentration curve to the time axis. CL(iv) represents the drug clearance of intravenous administration; T1/2 represents the plasma half-life of the drug, which refers to the time required for half of the drug to be eliminated from the body. Cmax represents the maximum concentration of the drug in the plasma after administration. F % indicates oral bioavailability of the drug.

SMILES: C[C@@H](CONC(=O)/C=C1/CCN(c2ncc(C(F)(F)F)cn2)CC1F)Nc1cn[nH]c(=O)c1C(F)(F)F (stereo partly drawn) [Example 24, (Z)-2-(3-fluoro-1-(5-(trifluoromethyl)pyrimidin-2-yl)piperidin-4-ylidene)-N—((S)-2-((6-oxo-5-(trifluoromethyl)-1,6-dihydropyridazin-4-yl)amino)propoxy)acetamide]
- pIC50 (NCI-H1373 cancer cells): 6.00 to 7.00
- pIC50 [1]: > 8.00

SMILES: C[C@@H](CONC(=O)CC1=CCN(c2ncc(-c3ccccc3F)cn2)CC1)Nc1cn[nH]c(=O)c1C(F)(F)F [Example 26, (S)-2-(1-(5-(2-fluorophenyl)pyrimidin-2-yl)-1,2,3,6-tetrahydropyridin-4-yl)-N-(2-((6-oxo-5-(trifluoromethyl)-1,6-dihydropyridazin-4-yl)amino)propoxy)acetamide]
- pIC50 (NCI-H1373 cancer cells): > 7.00
- pIC50 [1]: > 8.00

SMILES: CC1CN(c2ncc(-c3ccccc3F)cn2)CC=C1CC(=O)NOC[C@H](C)Nc1cn[nH]c(=O)c1C(F)(F)F (stereo partly drawn) [Example 27, 2-(1-(5-(2-fluorophenyl)pyrimidin-2-yl)-3-methyl-1,2,3,6-tetrahydropyridin-4-yl)-N—((S)-2-((6-oxo-5-(trifluoromethyl)-1,6-dihydropyridazin-4-yl)amino)propoxy)acetamide]
- pIC50 (NCI-H1373 cancer cells): 6.00 to 7.00
- pIC50 [1]: > 8.00

SMILES: CC1=C(CC(=O)NOC[C@H](C)Nc2cn[nH]c(=O)c2C(F)(F)F)CCN(c2ncc(-c3ccccc3F)cn2)C1 [Example 28, (S)-2-(1-(5-(2-fluorophenyl)pyrimidin-2-yl)-5-methyl-1,2,3,6-tetrahydropyridin-4-yl)-N-(2-((6-oxo-5-(trifluoromethyl)-1,6-dihydropyridazin-4-yl)amino)propoxy)acetamide]
- pIC50 (NCI-H1373 cancer cells): 6.00 to 7.00
- pIC50 [1]: > 8.00

SMILES: CC1CN(c2ncc(C3CC3)cn2)CC=C1CC(=O)NOC[C@H](C)Nc1cn[nH]c(=O)c1C(F)(F)F (stereo partly drawn) [Example 30, 2-(1-(5-cyclopropylpyrimidin-2-yl)-3-methyl-1,2,3,6-tetrahydropyridin-4-yl)-N—((S)-2-((6-oxo-5-(trifluoromethyl)-1,6-dihydropyridazin-4-yl)amino)propoxy)acetamide]
- pIC50 (NCI-H1373 cancer cells): > 7.00
- pIC50 [1]: > 8.00

SMILES: C[C@@H](COCCC(=O)N1CCN(c2ncc(C(F)(F)F)cn2)CC1)Nc1cn[nH]c(=O)c1C(F)(F)F [RBN-2397, reference compound]
- clearance ([2]; IV 3 mg/kg, read-out: CL(iv) (converted)): 68.3 mL/min/kg
- bioavailability ([2]; oral bioavailability, PO 10 mg/kg vs IV 3 mg/kg): 23.9%
- AUC(0-t) ([2]; IV 3 mg/kg): 732 ng·h/mL
- half-life ([2]; IV 3 mg/kg): 12 min
- AUC(0-t) ([2]; PO 10 mg/kg): 582 ng·h/mL
- Cmax ([2]; PO 10 mg/kg): 682 ng/mL

Continued, values first:

- pIC50 (NCI-H1373 cancer cells): > 7.00
- pIC50 [1]: > 8.00
SMILES: C[C@@H](CONC(=O)CC1=CCN(c2ncc(C3CC3)cn2)CC1)Nc1cn[nH]c(=O)c1C(F)(F)F [Example 29, (S)-2-(1-(5-cyclopropylpyrimidin-2-yl)-1,2,3,6-tetrahydropyridin-4-yl)-N-(2-((6-oxo-5-(trifluoromethyl)-1,6-dihydropyridazin-4-yl)amino)propoxy)acetamide]

- pIC50 (NCI-H1373 cancer cells): > 7.00
- pIC50 [1]: > 8.00
SMILES: CC(=O)c1c(N[C@@H](C)CONC(=O)CC2CCN(c3ncc(C(F)(F)F)cn3)CC2)cn[nH]c1=O [Example 36, (S)—N-(2-((5-acetyl-6-oxo-1,6-dihydropyridazin-4-yl)amino)propoxy)-2-(1-(5-(trifluoromethyl)pyrimidin-2-yl)piperidin-4-yl)acetamide]

- pIC50 (NCI-H1373 cancer cells): 6.00 to 7.00
- pIC50 [1]: > 8.00
SMILES: C[C@@H](CONC(=O)CC1CCN(c2ncc3cc[nH]c3n2)CC1)Nc1cn[nH]c(=O)c1C(F)(F)F [Example 38, (S)-2-(1-(7H-pyrrolo(2,3-d)pyrimidin-2-yl)piperidin-4-yl)-N-(2-((6-oxo-5-(trifluoromethyl)-1,6-dihydropyridazin-4-yl)amino)propoxy)acetamide]

- pIC50 (NCI-H1373 cancer cells): 6.00 to 7.00
- pIC50 [1]: > 8.00
SMILES: C[C@@H](CONC(=O)CC1CCN(c2ncc3cc(F)ccc3n2)CC1)Nc1cn[nH]c(=O)c1C(F)(F)F [Example 39, (S)-2-(1-(6-fluoroquinazolin-2-yl)piperidin-4-yl)-N-(2-((6-oxo-5-(trifluoromethyl)-1,6-dihydropyridazin-4-yl)amino)propoxy)acetamide]

- pIC50 (NCI-H1373 cancer cells): > 7.00
- pIC50 [1]: > 8.00
SMILES: C[C@@H](CONC(=O)C(F)C1CCN(c2ncc(C(F)(F)F)cn2)CC1)Nc1cn[nH]c(=O)c1C(F)(F)F (stereo partly shown) [Example 48]

- pIC50 (NCI-H1373 cancer cells): 6.00 to 7.00
- pIC50 [1]: > 8.00
SMILES: C[C@@H](CONC(=O)CC1CCN(c2ncc(C(F)(F)F)cn2)CC1F)Nc1cn[nH]c(=O)c1C(F)(F)F (stereo partly drawn) [Example 53, 2-(3-fluoro-1-(5-(trifluoromethyl)pyrimidin-2-yl)piperidin-4-yl)-N—((S)-2-((6-oxo-5-(trifluoromethyl)-1,6-dihydropyridazin-4-yl)amino)propoxy)acetamide]
